In ChEMBL document CHEMBL5113524, “Substrates and Inhibitors of the Organic Cation Transporter 3 and Comparison with OCT1 and OCT2” (J Med Chem, 2022):

Tests used:
[1] = molecular target: T1, OCT3 (SLC22A3) (Homo sapiens, UniProt O75751); assay: Inhibition of human OCT3 mediated (S,S)-Ethambutol uptake overexpressed in HEK293 cells at 20 uM incubated for 5 mins by HPLC-MS/MS analysis relative to control; assay type: cell-based; settings: HEK293 cells overexpressing OCT3, probe (S,S)-Ethambutol
T1 sequence (O75751 whole entry): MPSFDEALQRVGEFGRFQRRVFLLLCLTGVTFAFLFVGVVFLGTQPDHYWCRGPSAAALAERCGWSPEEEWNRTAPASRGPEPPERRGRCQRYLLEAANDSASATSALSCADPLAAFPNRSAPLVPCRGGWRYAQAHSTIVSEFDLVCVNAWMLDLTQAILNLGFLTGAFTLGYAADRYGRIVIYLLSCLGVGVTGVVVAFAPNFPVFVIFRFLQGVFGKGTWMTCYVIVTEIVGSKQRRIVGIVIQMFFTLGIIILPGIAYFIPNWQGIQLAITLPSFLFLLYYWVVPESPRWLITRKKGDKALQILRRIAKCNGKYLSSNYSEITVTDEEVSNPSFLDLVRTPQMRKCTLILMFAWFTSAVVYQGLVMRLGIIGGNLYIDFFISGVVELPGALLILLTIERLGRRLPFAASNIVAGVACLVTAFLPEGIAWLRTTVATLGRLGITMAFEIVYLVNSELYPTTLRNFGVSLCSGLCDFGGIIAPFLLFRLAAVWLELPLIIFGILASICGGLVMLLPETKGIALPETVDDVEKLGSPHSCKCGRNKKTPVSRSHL

[2] = molecular target: T1, OCT3 (SLC22A3); assay: Inhibition of human OCT3 mediated methylscopolamine uptake overexpressed in HEK293 cells at 20 uM incubated for 5 mins by HPLC-MS/MS analysis relative to control; assay type: cell-based; settings: HEK293 cells overexpressing OCT3, probe methylscopolamine
[3] = molecular target: T1, OCT3 (SLC22A3); assay: Inhibition of human OCT3 mediated ASP+ uptake overexpressed in HEK293 cells at 20 uM incubated for 5 mins by HPLC-MS/MS analysis relative to control; assay type: cell-based; settings: HEK293 cells overexpressing OCT3, probe ASP+
[4] = molecular target: T1, OCT3 (SLC22A3); assay: Inhibition of human OCT3 mediated Famotidine uptake overexpressed in HEK293 cells at 20 uM incubated for 5 mins by HPLC-MS/MS analysis relative to control; assay type: cell-based; settings: HEK293 cells overexpressing OCT3, probe Famotidine
[5] = molecular target: T1, OCT3 (SLC22A3); assay: Substrate activity at human OCT3 overexpressed in HEK293 cells assessed as uptake ratio incubated for 2 mins by LC-MS/MS analysis; assay type: ADME, cell-based; settings: HEK293 cells overexpressing OCT3
[6] = molecular target: T1, OCT3 (SLC22A3); assay: Inhibition of human OCT3 mediated N-Ethyllidocaine uptake overexpressed in HEK293 cells at 20 uM incubated for 5 mins by HPLC-MS/MS analysis relative to control; assay type: cell-based; settings: HEK293 cells overexpressing OCT3, probe N-Ethyllidocaine
[7] = molecular target: T2, Solute carrier family 22 member 3 (Homo sapiens, UniProt O75751); assay: (§1) Inhibition of human OCT3 overexpressed in HEK293 cells assessed as intracellularly accumulation of ASP+ at 20 uM incubated for 5 mins by HPLC-MS/MS analysis relative to control; assay type: cell-based; settings: hek293, 5 min, 20 µM
T2 sequence (O75751 whole entry): T1 sequence (O75751 whole entry)

[8] = molecular target: T1, OCT3 (SLC22A3); assay: Inhibition of OCT3 (unknown origin) overexpressed in HEK293 cells assessed as intracellular accumulation of ASP+ incubated for 2 mins by Analyst AD plate reader method relative to control; assay type: cell-based; parameters: concentration or dose not given beside the values; settings: HEK293 cells overexpressing OCT3, probe ASP+
[9] = molecular target: T1, OCT3 (SLC22A3); assay: as §1; assay type: cell-based; settings: HEK293 cells overexpressing OCT3, probe ASP+
[10] = molecular target: Solute carrier family 22 member 2 (Homo sapiens) (UniProt O15244); assay: Inhibition of OCT2 mediated (unknown origin) assessed as intracellular accumulation of ASP+ relative to control
[11] = molecular target: OCT1 (Homo sapiens, UniProt O15245); assay: Substrate activity at OCT1 (unknown origin) assessed as uptake ratio; assay type: ADME, cell-based; settings: HEK293 cells
[12] = molecular target: OCT2 (Homo sapiens, UniProt O15244); assay: Substrate activity at human OCT2 overexpressed in HEK293 cells assessed as uptake ratio incubated for 2 mins by LC-MS/MS analysis; assay type: ADME, cell-based; settings: HEK293 cells overexpressing OCT2
Chain of OCT2 (O15244 whole entry, looked up): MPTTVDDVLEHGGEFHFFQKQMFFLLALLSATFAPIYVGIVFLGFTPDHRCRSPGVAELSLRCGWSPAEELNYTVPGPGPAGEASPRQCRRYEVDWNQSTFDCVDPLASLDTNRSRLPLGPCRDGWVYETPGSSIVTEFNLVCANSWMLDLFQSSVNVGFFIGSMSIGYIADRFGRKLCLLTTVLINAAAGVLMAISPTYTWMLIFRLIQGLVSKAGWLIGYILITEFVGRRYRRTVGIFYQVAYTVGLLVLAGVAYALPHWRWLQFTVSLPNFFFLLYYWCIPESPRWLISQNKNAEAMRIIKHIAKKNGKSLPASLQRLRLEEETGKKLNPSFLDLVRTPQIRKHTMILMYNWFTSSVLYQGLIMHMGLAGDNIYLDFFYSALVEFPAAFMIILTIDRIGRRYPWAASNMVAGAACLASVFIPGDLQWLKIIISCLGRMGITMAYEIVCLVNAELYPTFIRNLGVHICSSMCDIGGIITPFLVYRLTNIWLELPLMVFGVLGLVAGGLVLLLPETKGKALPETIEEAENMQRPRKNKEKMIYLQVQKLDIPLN

Chain of Solute carrier family 22 member 2 (Homo sapiens) (O15244 whole entry, looked up): as above
Chain of OCT1 (O15245 whole entry, looked up): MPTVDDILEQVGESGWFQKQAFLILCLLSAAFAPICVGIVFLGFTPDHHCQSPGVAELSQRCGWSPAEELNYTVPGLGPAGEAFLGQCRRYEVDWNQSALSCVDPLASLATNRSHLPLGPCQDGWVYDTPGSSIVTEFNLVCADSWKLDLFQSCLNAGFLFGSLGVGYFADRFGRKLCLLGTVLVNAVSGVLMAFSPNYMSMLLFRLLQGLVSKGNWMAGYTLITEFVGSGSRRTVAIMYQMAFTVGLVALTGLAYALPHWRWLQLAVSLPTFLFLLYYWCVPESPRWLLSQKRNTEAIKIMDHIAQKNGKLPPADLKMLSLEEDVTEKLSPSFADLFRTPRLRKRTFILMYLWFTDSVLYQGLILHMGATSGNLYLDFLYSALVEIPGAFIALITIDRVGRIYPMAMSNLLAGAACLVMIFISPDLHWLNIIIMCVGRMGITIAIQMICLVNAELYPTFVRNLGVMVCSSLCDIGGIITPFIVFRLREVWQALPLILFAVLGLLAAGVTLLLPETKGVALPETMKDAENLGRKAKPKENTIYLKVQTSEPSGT

SMILES: CC[N+](CC)(CC)CC(=O)Nc1c(C)cccc1C
- inhibition at 5 min, 20 µM [1]: 44%
- inhibition at 5 min, 20 µM [2]: 15%
- inhibition at 5 min, 20 µM [3]: 16%
- inhibition at 5 min, 20 µM [4]: 52%
- uptake ratio at 2 min [5]: 50

SMILES: CC[N+](CC)(CC)Cc1ccccc1
- inhibition at 5 min, 20 µM [2]: 49%
- inhibition at 5 min, 20 µM [3]: 5%
- uptake ratio at 2 min [5]: 62.5

SMILES: CN(C)c1ccc(/C=C/c2cc[n+](C)cc2)cc1
- inhibition at 5 min, 20 µM [6]: 70%
- inhibition at 5 min, 20 µM [1]: 51%
- inhibition at 5 min, 20 µM [2]: 58%
- inhibition at 5 min, 20 µM [4]: 63%

SMILES: N=C(N)N1Cc2ccccc2C(O)C1 (stereo unspecified)
- uptake ratio at 2 min [5]: 38

SMILES: C[N+]1(CCC(C(N)=O)(c2ccccc2)c2ccccc2)CCCCC1
- inhibition (INH) [7]: Active

SMILES: C[N+]1(C)[C@@H]2C[C@H](OC(=O)[C@H](CO)c3ccccc3)C[C@H]1[C@@H]1O[C@@H]12
- inhibition at 5 min, 20 µM [6]: 21%
- inhibition at 5 min, 20 µM [1]: 27%
- inhibition at 5 min, 20 µM [3]: 0%
- inhibition at 5 min, 20 µM [4]: 40%

SMILES: Cc1cc(N)c2ccccc2[n+]1CCCCCCCCCC[n+]1c(C)cc(N)c2ccccc21
- inhibition at 2 min [8]: 66.6%

SMILES: C[N+]1(C)[C@@H]2C[C@H](OC(=O)C(O)(c3cccs3)c3cccs3)C[C@H]1[C@@H]1O[C@@H]12
- uptake ratio at 2 min [5]: 50

SMILES: CNCC/C=C1\c2ccccc2CC(O)c2ccccc21 (stereo unspecified)
- inhibition at 5 min, 20 µM [9]: 86.7%

SMILES: CN(C)CCC=C1c2ccccc2CC(O)c2ccccc21 (stereo unspecified)
- inhibition at 5 min, 20 µM [9]: 79.3%

SMILES: N=C(NCCCCCCNC(=N)NC(=N)Nc1ccc(Cl)cc1)NC(=N)Nc1ccc(Cl)cc1
- inhibition [10]: 105%

SMILES: COc1ccc2[nH]cc(CCN)c2c1 [5-METHOXYTRYPTAMINE]
- uptake ratio [11]: 3.8
- uptake ratio at 2 min [12]: 7.1
- uptake ratio at 2 min [5]: 2.2

SMILES: CCCCC(CC)CNC(=N)NC(=N)NCCCCCCNC(=N)NC(=N)NCC(CC)CCCC (stereo unspecified) [ALEXIDINE]
- inhibition at 2 min [8]: 98.1%
- inhibition at 5 min, 20 µM [9]: 103%

SMILES: CN(C)CCC=C1c2ccccc2CCc2ccccc21 [AMITRIPTYLINE]
- inhibition at 5 min, 20 µM [9]: 80%

SMILES: [H]/N=C(\N/C(=N/[H])NCCCCCCNC(=N)NC(=N)Nc1ccc(Cl)cc1)Nc1ccc(Cl)cc1 [CHLORHEXIDINE]
- inhibition at 2 min [8]: 98.4%
- inhibition at 5 min, 20 µM [9]: 98.4%

SMILES: CC(C)(C)NCC(O)c1ccc(O)c(O)c1 (stereo unspecified) [COLTEROL]
- uptake ratio at 2 min [5]: 53

SMILES: C[C@@H](Oc1cc(-c2cnn(C3CCNCC3)c2)cnc1N)c1c(Cl)ccc(F)c1Cl [CRIZOTINIB]
- inhibition at 5 min, 20 µM [9]: 90.4%

SMILES: C[N+]1(C)CCN(c2ccccc2)CC1 [DIMETHYLPHENYLPIPERAZINIUM]
- uptake ratio at 2 min [5]: 46

SMILES: CC[C@@H](CO)NCCN[C@@H](CC)CO [ETHAMBUTOL]
- inhibition at 5 min, 20 µM [6]: -7%
- inhibition at 5 min, 20 µM [2]: -13%
- inhibition at 5 min, 20 µM [3]: 7%
- inhibition at 5 min, 20 µM [4]: -1%

SMILES: CN[C@@H]1CCc2[nH]c3ccc(C(N)=O)cc3c2C1 [FROVATRIPTAN]
- uptake ratio [11]: 30.3
- uptake ratio at 2 min [12]: 10.8
- uptake ratio at 2 min [5]: 7.7

SMILES: CN(C)c1ccc(C(=C2C=CC(=[N+](C)C)C=C2)c2ccc(N(C)C)cc2)cc1 [GENTIAN VIOLET]
- inhibition at 2 min [8]: 107%
- inhibition [10]: 116%
- inhibition at 5 min, 20 µM [9]: 81.4%

SMILES: CC(C)[N+]1(C)[C@@H]2CC[C@H]1C[C@@H](OC(=O)C(CO)c1ccccc1)C2 (stereo partly specified) [IPRATROPIUM]
- inhibition at 2 min [8]: 47.8%
- inhibition at 5 min, 20 µM [9]: 79.1%

SMILES: CCC(NC(C)C)C(O)c1ccc(O)c(O)c1 (stereo unspecified) [ISOETHARINE]
- uptake ratio at 2 min [5]: 23.3

SMILES: C[N+]1(CC2CC2)CC[C@]23c4c5ccc(O)c4O[C@H]2C(=O)CC[C@@]3(O)[C@H]1C5 (stereo partly specified) [METHYLNALTREXONE]
- uptake ratio at 2 min [5]: 102

SMILES: CNCCC=C1c2ccccc2CCc2ccccc21 [NORTRIPTYLINE]
- inhibition at 5 min, 20 µM [9]: 80%

SMILES: Cc1nc2n(c(=O)c1CCN1CCC(c3noc4cc(F)ccc34)CC1)CCCC2O (stereo unspecified) [PALIPERIDONE]
- inhibition at 5 min, 20 µM [9]: 87.7%

SMILES: [H]/N=C(/N)N/C(=N/[H])NCCc1ccccc1 [PHENFORMIN]
- uptake ratio at 2 min [5]: 32.2

SMILES: CN(C)CCc1c[nH]c2ccc(Cn3cncn3)cc12 [RIZATRIPTAN]
- uptake ratio [11]: 4.3
- uptake ratio at 2 min [12]: 4.1
- uptake ratio at 2 min [5]: 2.4

SMILES: CC(=O)S[C@@H]1CC2=CC(=O)CC[C@]2(C)[C@H]2CC[C@@]3(C)[C@@H](CC[C@@]34CCC(=O)O4)[C@H]12 [SPIRONOLACTONE]
- inhibition [10]: 84.2%
- inhibition at 5 min, 20 µM [9]: 93.9%

SMILES: Cc1ccc(O)c([C@H](CCN(C(C)C)C(C)C)c2ccccc2)c1 [TOLTERODINE]
- inhibition at 5 min, 20 µM [9]: 96.1%

SMILES: O=C(O[C@H]1C[C@H]2CC[C@@H](C1)[N+]21CCCC1)C(O)(c1ccccc1)c1ccccc1 [TROSPIUM]
- inhibition (INH) [7]: Active

SMILES: CN(C)CCc1c[nH]c2ccc(C[C@H]3COC(=O)N3)cc12 [ZOLMITRIPTAN]
- uptake ratio [11]: 9.3
- uptake ratio at 2 min [12]: 1.2
- uptake ratio at 2 min [5]: 22
